According to ChEMBL document CHEMBL4270588, “Bioactive heterocycles containing a 3,4,5-trimethoxyphenyl fragment exerting potent antiproliferative activity through microtubule destabilization” (Eur J Med Chem, 2018):
Calls of active or inactive are those of the source. The rule behind the calls is not given here.

Tests used:
PC-3 = assay: Antiproliferative activity against human PC3 cells after 48 hrs by MTT assay; type: functional, cell-based; conditions: PC-3, 48 h
MGC-803 [1] = assay: Antiproliferative activity against human MGC803 cells after 48 hrs by MTT assay; type: functional, cell-based; conditions: MGC-803, 48 h
ECa-109 cell line = assay: Antiproliferative activity against human EC109 cells after 48 hrs by MTT assay; type: functional, cell-based; conditions: ECa-109, 48 h
MGC-803 [2] = assay: Induction of apoptosis in human MGC803 cells assessed as live cells at 200 nM after 48 hrs by Annexin-V-FITC/propidium iodide staining based flow cytometry (reference value: 96.4%); type: functional
MGC-803 [3] = assay: Cell cycle arrest in human MGC803 cells assessed as accumulation at G2 phase at 400 nM after 48 hrs by propidium iodide staining based flow cytometry (reference value: 8.76%); type: functional
MGC-803 [4] = assay: Induction of apoptosis in human MGC803 cells assessed as necrotic cells at 200 nM after 48 hrs by Annexin-V-FITC/propidium iodide staining based flow cytometry (reference value: 0.1%); type: functional
MGC-803 [5] = assay: Disruption of mitochondrial membrane potential in human MGC803 cells assessed as collapse of the mitochondrial membrane potential at 400 nM after 48 hrs by JC1 staining based flow cytometry (reference value: 96.1%); type: functional
MGC-803 [6] = assay: Disruption of mitochondrial membrane potential in human MGC803 cells assessed as collapse of the mitochondrial membrane potential at 200 nM after 48 hrs by JC1 staining based flow cytometry (reference value: 96.1%); type: functional
MGC-803 [7] = assay: Disruption of mitochondrial membrane potential in human MGC803 cells assessed as intact mitochondrial membrane at 600 nM after 48 hrs by JC1 staining based flow cytometry (reference value: 3.9%); type: functional
MGC-803 [8] = assay: Cell cycle arrest in human MGC803 cells assessed as accumulation at S phase at 200 nM after 48 hrs by propidium iodide staining based flow cytometry (reference value: 24.8%); type: functional
MGC-803 [9] = assay: Induction of apoptosis in human MGC803 cells assessed as decrease in PARP level after 48 hrs by Western blot analysis; type: functional, cell-based
Homo sapiens [10] = organism: Homo sapiens; assay: Inhibition of EBI binding to beta-tubulin colchicine binding site in human MGC803 cells at […] preincubated for 2 hrs followed by EBI addition and measured after 2 hrs by Western blot analysis; type: cell-based
MGC-803 [11] = assay: Disruption of mitochondrial membrane potential in human MGC803 cells assessed as intact mitochondrial membrane at 400 nM after 48 hrs by JC1 staining based flow cytometry (reference value: 3.9%); type: functional
MGC-803 [12] = assay: Induction of apoptosis in human MGC803 cells assessed as decrease in XIAP level after 48 hrs by Western blot analysis; type: functional, cell-based
MGC-803 [13] = assay: Disruption of mitochondrial membrane potential in human MGC803 cells assessed as collapse of the mitochondrial membrane potential at 600 nM after 48 hrs by JC1 staining based flow cytometry (reference value: 96.1%); type: functional
MGC-803 [14] = assay: Disruption of mitochondrial membrane potential in human MGC803 cells after 48 hrs by JC1 staining based flow cytometry; type: functional, cell-based
MGC-803 [15] = assay: Induction of apoptosis in human MGC803 cells assessed as early apoptotic cells at 600 nM after 48 hrs by Annexin-V-FITC/propidium iodide staining based flow cytometry (reference value: 2.5%); type: functional
MGC-803 [16] = assay: Induction of apoptosis in human MGC803 cells assessed as late apoptotic cells at 400 nM after 48 hrs by Annexin-V-FITC/propidium iodide staining based flow cytometry (reference value: 1%); type: functional
MGC-803 [17] = assay: Induction of apoptosis in human MGC803 cells assessed as early apoptotic cells at 400 nM after 48 hrs by Annexin-V-FITC/propidium iodide staining based flow cytometry (reference value: 2.5%); type: functional
MGC-803 [18] = assay: Induction of apoptosis in human MGC803 cells assessed as live cells at 600 nM after 48 hrs by Annexin-V-FITC/propidium iodide staining based flow cytometry (reference value: 96.4%); type: functional
MGC-803 [19] = assay: Cell cycle arrest in human MGC803 cells assessed as accumulation at G1 phase at 200 nM after 48 hrs by propidium iodide staining based flow cytometry (reference value: 62.61%); type: functional
MGC-803 [20] = assay: Induction of apoptosis in human MGC803 cells assessed as early apoptotic cells at 200 nM after 48 hrs by Annexin-V-FITC/propidium iodide staining based flow cytometry (reference value: 2.5%); type: functional
MGC-803 [21] = assay: Induction of apoptosis in human MGC803 cells assessed as live cells at 400 nM after 48 hrs by Annexin-V-FITC/propidium iodide staining based flow cytometry (reference value: 96.4%); type: functional
MGC-803 [22] = assay: Induction of apoptosis in human MGC803 cells assessed as necrotic cells at 600 nM after 48 hrs by Annexin-V-FITC/propidium iodide staining based flow cytometry (reference value: 0.1%); type: functional
MGC-803 [23] = assay: Induction of apoptosis in human MGC803 cells assessed as late apoptotic cells at 600 nM after 48 hrs by Annexin-V-FITC/propidium iodide staining based flow cytometry (reference value: 1%); type: functional
Tubulin [24] = assay: Inhibition of tubulin polymerization (unknown origin) measured every 5 mins by fluorescence assay; type: protein-complex assay, Homo sapiens
MGC-803 [25] = assay: Induction of apoptosis in human MGC803 cells assessed as late apoptotic cells at 200 nM after 48 hrs by Annexin-V-FITC/propidium iodide staining based flow cytometry (reference value: 1%); type: functional
MGC-803 [26] = assay: Cell cycle arrest in human MGC803 cells assessed as accumulation at S phase at 400 nM after 48 hrs by propidium iodide staining based flow cytometry (reference value: 24.8%); type: functional
MGC-803 [27] = assay: Cell cycle arrest in human MGC803 cells assessed as accumulation at G2 phase at 200 nM after 48 hrs by propidium iodide staining based flow cytometry (reference value: 8.76%); type: functional
MGC-803 [28] = assay: Cell cycle arrest in human MGC803 cells assessed as down regulation of cyclin B1 expression after 48 hrs by Western blot analysis; type: functional, cell-based
MGC-803 [29] = assay: Cell cycle arrest in human MGC803 cells assessed as down regulation of CDK1 expression after 48 hrs by Western blot analysis; type: functional, cell-based
MGC-803 [30] = assay: Cell cycle arrest in human MGC803 cells assessed as accumulation at G1 phase at 400 nM after 48 hrs by propidium iodide staining based flow cytometry (reference value: 62.61%); type: functional
MGC-803 [31] = assay: Induction of apoptosis in human MGC803 cells assessed as decrease in Bcl2 level after 48 hrs by Western blot analysis; type: functional, cell-based
Tubulin (Homo sapiens) = Tubulin (Homo sapiens) (UniProt P68371+Q9H4B7+P0DPH7+P68366+Q13509+Q71U36+P04350+Q3ZCM7+P07437+P68363+Q9BQE3+Q6PEY2+Q13885+Q9BVA1+Q9BUF5); assay: Inhibition of tubulin polymerization in human MGC803 cells assessed as depolymerization of interphase microtubules at 600 nM after 4 to 8 hrs by DAPI staining based microscopic analysis; type: cell-based
MGC-803 [32] = assay: Disruption of mitochondrial membrane potential in human MGC803 cells assessed as intact mitochondrial membrane at 200 nM after 48 hrs by JC1 staining based flow cytometry (reference value: 3.9%); type: functional
MGC-803 [33] = assay: Induction of apoptosis in human MGC803 cells assessed as necrotic cells at 400 nM after 48 hrs by Annexin-V-FITC/propidium iodide staining based flow cytometry (reference value: 0.1%); type: functional
Tubulin [34] = assay: Inhibition of tubulin polymerization (unknown origin) by turbidimetric method; type: protein-complex assay, Homo sapiens
Homo sapiens [35] = organism: Homo sapiens; assay: Inhibition of EBI binding to beta-tubulin colchicine binding site in human MGC803 cells at 5 uM preincubated for 2 hrs followed by EBI addition and measured after 2 hrs by Western blot analysis; type: cell-based

## COc1ccc(CN(C(=O)CSc2nnnn2C)c2cc(OC)c(OC)c(OC)c2)cc1
PC-3
  IC50: 10.5 µM
MGC-803 [1]
  IC50: 2.49 µM
ECa-109 cell line
  IC50: 5.54 µM

## COc1ccc(CN(C(=O)CCCSc2nc3ccccc3o2)c2cc(OC)c(OC)c(OC)c2)cc1
PC-3
  IC50: 32.7 µM
MGC-803 [1]
  IC50: 1.29 µM
ECa-109 cell line
  IC50: 11 µM

## COc1ccc(CN(C(=O)CSc2ccccn2)c2cc(OC)c(OC)c(OC)c2)cc1
PC-3
  IC50: 7.51 µM
MGC-803 [1]
  IC50: 2.41 µM
ECa-109 cell line
  IC50: 16 µM

## COc1ccc(CN(C(=O)CSc2nc3ccccc3o2)c2cc(OC)c(OC)c(OC)c2)cc1
PC-3
  IC50: 3.53 µM
MGC-803 [2]
  Activity: 95.9%
MGC-803 [3]
  Activity: 20.71%
MGC-803 [4]
  Activity: 0.1%
MGC-803 [5]
  Activity: 39.9%
MGC-803 [6]
  Activity: 3.9%
MGC-803 [7]
  Activity: 47.2%
MGC-803 [8]
  Activity: 23.29%
MGC-803 [9]
  Activity: Dose-dependent effect
Homo sapiens [10]
  inhibition: Active
MGC-803 [11]
  Activity: 60.1%
MGC-803 [1]
  IC50: 0.45 µM
MGC-803 [12]
  Activity: Dose-dependent effect
MGC-803 [13]
  Activity: 52.8%
MGC-803 [14]
  Activity: Dose-dependent effect
MGC-803 [15]
  Activity: 4.9%
MGC-803 [16]
  Activity: 4.3%
MGC-803 [17]
  Activity: 4.1%
MGC-803 [18]
  Activity: 61.7%
MGC-803 [19]
  Activity: 61.68%
MGC-803 [20]
  Activity: 2.8%
MGC-803 [21]
  Activity: 89.7%
MGC-803 [22]
  Activity: 3.1%
MGC-803 [23]
  Activity: 30.3%
Tubulin [24]
  IC50: 3.35 µM
MGC-803 [25]
  Activity: 1.1%
MGC-803 [26]
  Activity: 22.46%
MGC-803 [27]
  Activity: 12.13%
MGC-803 [28]
  Activity: Dose-dependent effect
MGC-803 [29]
  Activity: Dose-dependent effect
MGC-803 [30]
  Activity: 52.55%
MGC-803 [31]
  Activity: Dose-dependent effect
Tubulin (Homo sapiens)
  inhibition: Active
ECa-109 cell line
  IC50: 24.8 µM
MGC-803 [32]
  Activity: 96.1%
MGC-803 [33]
  Activity: 1.9%

## Cc1ccc(S(=O)(=O)NCc2cn(Cc3cccc(Oc4ccccc4)c3)nn2)cc1
Tubulin [34]
  IC50: 2.41 µM

## COc1cc2c(c(OC)c1OC)-c1ccc(OC)c(=O)cc1[C@@H](NC(C)=O)CC2 [COLCHICINE]
PC-3
  IC50: 0.13 µM
Homo sapiens [35]
  inhibition: Active
MGC-803 [1]
  IC50: 0.177 µM
ECa-109 cell line
  IC50: 1.24 µM

## COc1ccc(CN(C(=O)CSc2nc3ccc(OC)cc3s2)c2cc(OC)c(OC)c(OC)c2)cc1
PC-3
  IC50: 20.2 µM
MGC-803 [1]
  IC50: 1.27 µM
ECa-109 cell line
  IC50: > 80 µM

## COc1ccc(CN(C(=O)CCSc2nc3ccccc3o2)c2cc(OC)c(OC)c(OC)c2)cc1
PC-3
  IC50: 20.2 µM
MGC-803 [1]
  IC50: 0.64 µM
ECa-109 cell line
  IC50: 12.6 µM

## COc1ccc(CN(C(=O)CCCCSc2nc3ccccc3o2)c2cc(OC)c(OC)c(OC)c2)cc1
PC-3
  IC50: 45.6 µM
MGC-803 [1]
  IC50: 1.36 µM
ECa-109 cell line
  IC50: 7.65 µM

## COc1ccc(CN(C(=O)CSc2nncs2)c2cc(OC)c(OC)c(OC)c2)cc1
PC-3
  IC50: 5.53 µM
MGC-803 [1]
  IC50: 1.15 µM
ECa-109 cell line
  IC50: 9.84 µM

## COc1ccc(CN(C(=O)CSc2nc3ccccc3[nH]2)c2cc(OC)c(OC)c(OC)c2)cc1
PC-3
  IC50: 14.3 µM
MGC-803 [1]
  IC50: 1.23 µM
ECa-109 cell line
  IC50: 42.6 µM
